Assay results taken from patent publication US11673876B2, “Substituted aminobenzyl heteroaryl compounds as EGFR and/or PI3K inhibitors” (Mekanistic Therapeutics LLC, priority 2020, dated 2023).
pIC50: −log10 of the molar value. Values after ≈ are worked out from the molar mass of the structure shown.

Legend:
EGFR = EGFR (Homo sapiens (Human), UniProt P00533); assay: Z'-LYTE / Adapta kinase assay, EGFR; type: biochemical; settings: for inhibition at 0.1 µM: read-out: EGFR % Inh. @ 100 nM
Source text: (§1) The Z′-LYTE® biochemical assay employs a fluorescence-based, coupled-enzyme format and is based on the differential sensitivity of phosphorylated and non-phosphorylated peptides to proteolytic cleavage (FIG. 6). The peptide substrate is labeled with two fluorophores one at each end—that make up a FRET pair. In the primary reaction, the kinase transfers the gamma-phosphate of ATP to a single tyrosine, serine or threonine residue in a synthetic FRET-peptide. In the secondary reaction, a site-specific protease recognizes and cleaves non-phosphorylated FRET-peptides. Phosphorylation of FRET-peptides suppresses cleavage by the Development Reagent. Cleavage disrupts FRET between the donor (i.e., coumarin) and acceptor (i.e., fluorescein) fluorophores on the FRET-peptide, whereas uncleaved, phosphorylated FRET-peptides maintain FRET. A ratiometric method, which calculates the ratio (the Emission Ratio) of donor emission to acceptor emission after excitation of the donor fluorophore at 400 nm, is used to quantitate reaction progress.
(§2) A significant benefit of this ratiometric method for quantitating reaction progress is the elimination of well-to-well variations in FRET-peptide concentration and signal intensities. As a result, the assay yields very high Z′-factor values (>0.7) at a low percent phosphorylation.
(§3) Both cleaved and uncleaved FRET-peptides contribute to the fluorescence signals and therefore to the Emission Ratio. The extent of phosphorylation of the FRET-peptide can be calculated from the Emission Ratio.
(§4) Enzyme: The ADAPTA universal kinase assay is a homogenous, fluorescent based immunoassay for the detection of ADP. In contrast to ATP depletion assays, the ADAPTA assay is extremely sensitive to ADP formation such that a majority of the signal change occurs in the first 10-20% conversion of ATP to ADP. This makes the ADAPTA universal kinase assay ideally suited for use with low activity kinases.
(§5) The principle of the ADAPTA universal kinase assay is outlined below. The assay itself can be divided into two phases: a kinase reaction phase, and an ADP detection phase. In the kinase reaction phase, all components required for the kinase reaction are added to the well, and the reaction is allowed to incubate for 60 minutes.
(§6) Z′-LYTE® Assay Conditions:
(§7) Test Compounds: The Test Compounds are screened in 1% DMSO (final) in the well. For 10 point titrations, 3-fold serial dilutions are conducted from the starting concentration.
(§8) Peptide/Kinase Mixtures: All Peptide/Kinase Mixtures are diluted to a 2× working concentration in the appropriate Kinase Buffer.
(§9) ATP Solution: All ATP Solutions are diluted to a 4× working concentration in Kinase Buffer (50 mM HEPES pH 7.5, 0.01% BRIJ-35, 10 mM MgCl2, 1 mM EGTA). ATP Km apparent is previously determined using a Z′-LYTE® assay.
(§10) Development Reagent Solution: The Development Reagent is diluted in Development Buffer. […]
(§11) 2.5 μL—4× Test Compound or 100 nL 100× plus 2.4 μL kinase buffer. 2. 5 μL—2× Peptide/Kinase Mixture. 3. 2.5 μL—4× ATP Solution. 4. 30-second plate shake. 5. 60-minute Kinase Reaction incubation at room temperature. 6. 5 μL—Development Reagent Solution. 7. 30-second plate shake. 8. 60-minute Development Reaction incubation at room temperature. 9.

PI3Ka = PI3Ka (Homo sapiens (Human), UniProt P42336); assay: Z'-LYTE / Adapta kinase assay, PI3Ka; type: biochemical; settings: for inhibition at 0.1 µM: read-out: PI3Ka % Inh. @ 100 nM
Sequence of PI3Ka (P42336 whole entry): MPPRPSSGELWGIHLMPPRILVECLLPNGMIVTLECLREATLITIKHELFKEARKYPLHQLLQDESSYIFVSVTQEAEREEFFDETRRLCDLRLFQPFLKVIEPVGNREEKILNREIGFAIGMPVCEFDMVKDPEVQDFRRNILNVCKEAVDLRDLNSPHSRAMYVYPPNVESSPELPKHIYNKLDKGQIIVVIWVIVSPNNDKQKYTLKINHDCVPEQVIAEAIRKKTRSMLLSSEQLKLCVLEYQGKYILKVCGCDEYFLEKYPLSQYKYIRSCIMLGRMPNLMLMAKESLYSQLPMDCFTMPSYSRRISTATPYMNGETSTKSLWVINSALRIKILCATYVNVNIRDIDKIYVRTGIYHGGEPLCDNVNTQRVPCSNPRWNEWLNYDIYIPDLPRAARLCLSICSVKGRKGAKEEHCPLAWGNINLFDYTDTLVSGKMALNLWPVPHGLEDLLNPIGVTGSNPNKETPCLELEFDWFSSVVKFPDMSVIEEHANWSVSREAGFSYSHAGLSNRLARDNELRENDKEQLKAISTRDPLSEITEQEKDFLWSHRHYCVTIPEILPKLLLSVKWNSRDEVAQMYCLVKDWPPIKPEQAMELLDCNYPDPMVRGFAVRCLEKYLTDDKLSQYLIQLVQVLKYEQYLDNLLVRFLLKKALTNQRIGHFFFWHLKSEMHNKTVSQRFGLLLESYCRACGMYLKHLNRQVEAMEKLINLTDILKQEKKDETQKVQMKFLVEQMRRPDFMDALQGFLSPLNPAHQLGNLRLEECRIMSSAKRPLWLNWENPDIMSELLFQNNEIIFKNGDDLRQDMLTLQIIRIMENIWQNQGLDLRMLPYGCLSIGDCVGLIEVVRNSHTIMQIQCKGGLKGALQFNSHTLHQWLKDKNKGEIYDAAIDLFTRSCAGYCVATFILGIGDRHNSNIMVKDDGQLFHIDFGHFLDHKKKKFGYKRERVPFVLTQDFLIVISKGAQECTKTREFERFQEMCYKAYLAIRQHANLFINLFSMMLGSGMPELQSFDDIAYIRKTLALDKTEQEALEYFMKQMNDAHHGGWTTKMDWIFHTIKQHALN
Sequence of PI3Ka (P27986 whole entry partner): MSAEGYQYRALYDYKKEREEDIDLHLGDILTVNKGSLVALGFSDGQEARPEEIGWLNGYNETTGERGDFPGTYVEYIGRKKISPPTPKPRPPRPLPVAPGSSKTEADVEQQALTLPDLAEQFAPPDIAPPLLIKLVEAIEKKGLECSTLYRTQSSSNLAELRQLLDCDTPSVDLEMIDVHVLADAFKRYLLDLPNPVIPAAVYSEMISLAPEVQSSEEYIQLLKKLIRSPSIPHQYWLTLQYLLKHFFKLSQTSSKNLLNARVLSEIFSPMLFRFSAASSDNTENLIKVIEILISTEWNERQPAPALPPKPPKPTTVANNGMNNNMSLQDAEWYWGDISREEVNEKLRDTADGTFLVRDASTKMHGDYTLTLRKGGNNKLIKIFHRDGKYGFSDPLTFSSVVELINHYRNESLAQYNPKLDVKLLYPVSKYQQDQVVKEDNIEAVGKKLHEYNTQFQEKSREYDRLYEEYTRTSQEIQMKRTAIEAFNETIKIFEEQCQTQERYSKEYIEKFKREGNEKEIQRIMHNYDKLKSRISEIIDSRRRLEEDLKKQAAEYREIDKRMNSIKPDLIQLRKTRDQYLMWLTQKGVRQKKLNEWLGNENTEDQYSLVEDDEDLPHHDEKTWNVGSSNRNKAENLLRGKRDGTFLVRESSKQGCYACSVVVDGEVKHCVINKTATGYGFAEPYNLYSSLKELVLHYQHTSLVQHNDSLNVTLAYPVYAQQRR
Source text: as §1, §2, §3, §4, §5, §6, §7, §8, §9, §10, §11

DNA-PK = DNA-PK (Homo sapiens (Human), UniProt P78527); assay: Z'-LYTE / Adapta kinase assay, DNA-PK; type: biochemical; settings: for inhibition at 0.1 µM: read-out: DNA-PK % Inh. @ 100 nM
Source text: as §1, §2, §3, §4, §5, §6, §7, §8, §9, §10, §11

[1] = Solubility determination (PBS 7.4, SIF, SGF); type: physicochemical; settings: simulated intestinal fluid (SIF), kinetic from dmso stock; simulated intestinal fluid pH 6.8, 25° C., 2 hours; read-out: Solubility SIF
Experimental: Preparation of stock solutions: The stock solutions of test compounds and control compound diclofenac were prepared in DMSO at the concentrations of 10 mM.
Simulated Gastric Fluid (SGF): An aqueous mixture including hydrochloric acid, sodium chloride, and pepsin (pH=1.2).
Simulated Intestinal Fluid (SIF): Prepared by dissolving 6.8 g of KH2PO4 into about 500 mL ultrapure water and adjust the solution to a pH 6.8 with 0.1 M NaOH. 10 g trypsin is then dissolved into ultrapure water. The two solutions are mixed well and diluted with ultrapure water to a final volume of 1000 mL.
485 μL of (SIF, SGF, PBS 7.4, FESSIF, or FESSGF) was added into each vial of the cap-less Solubility Sample plate. The assay was performed in duplicate. Add one stir stick to each vial and seal using a molded PTFE/Silicone plug. […] After completion of the 2 hours, plugs were removed and the stir sticks were removed using a big magnet, the samples from the Solubility Sample plate were transferred into the filter plate. Using the Vacuum Manifold, all the samples were filtered. Aliquot of 5 μL and 5 μL DMSO were taken from the filtrate followed by addition of 490 μL of a mixture of H2O and acetonitrile containing internal standard (1:1). A certain proportion of ultrapure water was used to dilute the diluent according to the peak shape. The dilution factor was changed according to the solubility values and the LC-MS signal response.
Preparation of 300 μM standards (STD): From the 10 mM DMSO STD plate, 6 μL was transferred into the remaining empty plate, and then 194 μL of DMSO was added to that plate to have a STD concentration of 300 μM. From the 300 μM DMSO STD plate, 5 μL DMSO STD and 5 μL SIF was transferred into the remaining empty plate, and then 490 μL of a mixture of H2O and acetonitrile containing internal standard (1:1) was added to that plate to have a final STD concentration of 3 μM. A certain proportion of ultrapure water was used to dilute the diluent according to the peak shape. The concentrations of the standard samples were changed according to the LC-MS signal response.
Procedure for sample analysis: The plate was placed into the well plate autosampler. The samples were evaluated by LC-MS/MS analysis.
Data analysis: All calculations were carried out using Microsoft Excel. The filtrate was analyzed and quantified against a standard of known concentration using LC coupled with mass spectral peak identification and quantitation. Solubility values of the test compound and control compound were calculated as follows: […]
Any value of the compounds that was not within the specified limits was rejected and the experiment was repeated.

Sequence of EGFR (P00533 25-1210): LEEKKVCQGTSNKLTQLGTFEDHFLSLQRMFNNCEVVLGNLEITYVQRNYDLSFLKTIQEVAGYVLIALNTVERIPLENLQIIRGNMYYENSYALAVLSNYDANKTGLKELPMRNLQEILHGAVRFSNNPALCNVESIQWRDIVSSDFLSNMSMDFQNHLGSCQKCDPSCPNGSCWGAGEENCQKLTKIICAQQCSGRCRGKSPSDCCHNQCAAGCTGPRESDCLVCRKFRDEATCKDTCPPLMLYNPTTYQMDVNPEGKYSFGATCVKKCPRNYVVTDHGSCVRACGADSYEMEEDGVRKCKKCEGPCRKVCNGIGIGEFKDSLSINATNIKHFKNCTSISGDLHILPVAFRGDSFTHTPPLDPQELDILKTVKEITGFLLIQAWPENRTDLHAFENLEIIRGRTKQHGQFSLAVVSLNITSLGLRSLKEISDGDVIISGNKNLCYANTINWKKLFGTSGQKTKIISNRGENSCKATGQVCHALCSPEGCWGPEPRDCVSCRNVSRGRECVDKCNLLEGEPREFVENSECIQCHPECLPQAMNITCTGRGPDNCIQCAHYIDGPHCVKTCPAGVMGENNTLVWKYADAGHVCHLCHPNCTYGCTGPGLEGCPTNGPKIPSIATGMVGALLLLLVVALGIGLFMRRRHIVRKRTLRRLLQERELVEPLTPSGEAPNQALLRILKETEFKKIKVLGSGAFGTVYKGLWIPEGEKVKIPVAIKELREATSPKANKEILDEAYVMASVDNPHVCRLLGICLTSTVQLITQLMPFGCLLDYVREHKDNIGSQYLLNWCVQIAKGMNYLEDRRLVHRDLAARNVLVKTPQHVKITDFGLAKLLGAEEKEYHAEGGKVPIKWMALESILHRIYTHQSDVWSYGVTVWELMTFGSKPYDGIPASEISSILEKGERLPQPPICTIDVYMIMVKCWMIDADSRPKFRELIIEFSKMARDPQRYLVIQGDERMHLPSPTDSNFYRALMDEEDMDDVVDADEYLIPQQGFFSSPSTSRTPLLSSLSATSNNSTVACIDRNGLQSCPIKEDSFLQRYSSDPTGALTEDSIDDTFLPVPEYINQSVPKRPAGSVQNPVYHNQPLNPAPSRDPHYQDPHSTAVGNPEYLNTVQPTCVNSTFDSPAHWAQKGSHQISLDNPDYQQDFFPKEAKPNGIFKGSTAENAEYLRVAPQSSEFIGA

SMILES | inhibition at 0.1 µM (EGFR) [%] | inhibition at 0.1 µM (PI3Ka) [%] | inhibition at 0.1 µM (DNA-PK) [%] | solubility at 2 h [1] [µM] | pIC50 (EGFR) | pIC50 (PI3Ka) | pIC50 (DNA-PK)
CC(Nc1ncnc2ccc(-c3cnc(N)nc3)cc12)c1ccccc1 (stereo not shown) [Compound 7, 6-(2-aminopyrimidin-5-yl)-N-(1-phenylethyl)quinazolin-4-amine] | 80 to 90 | 10 to 80 | 10 to 80 | 20 to 100 (≈ 6.85 to 34.2 µg/mL) | – | – | –
CC(Nc1ncnc2ccc(-c3cnc4[nH]ncc4c3)cc12)c1ccccc1 (stereo not shown) [Compound 8, N-(1-phenylethyl)-6-(1H-pyrazolo[3,4-b]pyridin-5-yl)quinazolin-4-amine] | 80 to 90 | 10 to 80 | 10 to 80 | – | – | – | –
CC(Nc1c(C#N)cnc2ccc(-c3cccnc3)cc12)c1ccccc1 (stereo not shown) [Compound 123, 4-(1-phenylethylamino)-6-(3-pyridyl) quinoline-3-carbonitrile] | > 90 | < 10 | 10 to 80 | – | – | – | –
CC(Nc1c(C#N)cnc2ccc(-c3cncc(C(C)(C)O)c3)cc12)c1ccccc1 (stereo not shown) [Compound 67, 6-[5-(1-hydroxy-1-methyl-ethyl)-3-pyridyl]-4-(1-phenylethylamino) quinoline-3-carbonitrile] | 10 to 80 | 10 to 80 | 10 to 80 | – | – | – | –
C[C@@H](Nc1c(C#N)cnc2ccc(-c3cnc4[nH]ncc4c3)cc12)c1ccccc1 [Compound 54R, 4-[[(1R)-1-phenylethyl]amino]-6-(1H-pyrazolo [3,4-b]pyridin-5-yl) quinoline-3-carbonitrile] | 80 to 90 | 10 to 80 | 10 to 80 | – | – | – | –
C[C@@H](Nc1ncnc2ccc(-c3ccc4c(c3)C(=O)OC4)cc12)c1ccccc1 [Compound 136, 6-[4-[[(1R)-1-phenylethyl]amino]quinazolin-6-yl]-3H-isobenzofuran-1-one] | > 90 | < 10 | < 10 | – | – | – | –
OCC(Nc1ncnc2ccc(-c3cnc4cnccn34)cc12)c1ccccc1 (stereo not shown) [Compound 140, 2-[(6-imidazo[1,2-a]pyrazin-3-ylquinazolin-4-yl)amino]-2-phenyl-ethanol] | 10 to 80 | < 10 | < 10 | – | – | – | –
CC(Nc1c(C#N)cnc2ccc(-c3cc(Cl)c(O)c(Cl)c3)cc12)c1ccccc1 (stereo not shown) [Compound 131, 6-(3,5-dichloro-4-hydroxy-phenyl)-4-(1-phenylethylamino) quinoline-3-carbonitrile] | 10 to 80 | < 10 | < 10 | – | – | – | –
CC(Nc1c(C#N)cnc2ccc(-c3cc(F)c(O)c(F)c3)cc12)c1ccccc1 (stereo not shown) [Compound 130, 6-(3,5-difluoro-4-hydroxy-phenyl)-4-(1-phenylethylamino) quinoline-3-carbonitrile] | 10 to 80 | < 10 | < 10 | – | – | – | –
CC(Nc1ncnc2ccc(-c3ccc4oc(N)nc4c3)cc12)c1ccccc1 (stereo not shown) [Compound 41, 5-[4-(1-phenylethylamino)quinazolin-6-yl]-1,3-benzoxazol-2-amine] | > 90 | 10 to 80 | < 10 | – | – | – | –
CC(Nc1c(C#N)cnc2ccc(-c3cncc(-c4n[nH]c(=O)o4)c3)cc12)c1ccccc1 (stereo not shown) [Compound 129, 6-[5-(2-oxo-3H-1,3,4-oxadiazol-5-yl)-3-pyridyl]-4-(1-phenylethylamino) quinoline-3-carbonitrile] | 80 to 90 | 10 to 80 | 80 to 90 | ≤ 20 | 7.70 to 8.70 | 6.70 to 7.70 | 7.70 to 8.70
CC(Nc1c(C#N)cnc2ccc(-c3ccc4oc(N)nc4c3)cc12)c1ccccc1 (stereo not shown) [Compound 87, 6-(2-amino-1,3-benzoxazol-5-yl)-4-(1-phenylethylamino) quinoline-3-carbonitrile] | 80 to 90 | 10 to 80 | < 10 | – | – | – | –
CC(Nc1ncnc2ccc(-c3cnc4cnccn34)cc12)c1ccccc1 (stereo not shown) [Compound 139, 6-imidazo[1,2-a]pyrazin-3-yl-N-(1-phenylethyl)quinazolin-4-amine] | 10 to 80 | 10 to 80 | < 10 | – | – | – | –
CC(Nc1ncnc2ccc(-c3cnc4[nH]nnc4c3)cc12)c1ccccc1 (stereo not shown) [Compound 24, N-(1-phenylethyl)-6-(3H-triazolo[4,5-b]pyridin-6-yl)quinazolin-4-amine] | > 90 | 10 to 80 | 10 to 80 | – | – | – | –
COc1ncc(-c2ccc3ncnc(N[C@H](C)c4ccccc4)c3c2)cc1C#N [Compound 132, 2-methoxy-5-[4-[[(1R)-1-phenylethyl]amino]quinazolin-6-yl]pyridine-3-carbonitrile] | 10 to 80 | < 10 | < 10 | – | – | – | –
CC(Nc1ncnc2ccc(-c3cncc(C(C)(C)O)c3)cc12)c1ccccc1 (stereo not shown) [Compound 21, 2-[5-[4-(1-phenylethylamino)quinazolin-6-yl]-3-pyridyl]propan-2-ol] | 80 to 90 | 10 to 80 | 10 to 80 | – | – | – | –
Cc1nc2cc(-c3ccc4ncc(C#N)c(NC(C)c5ccccc5)c4c3)cnc2[nH]1 (stereo not shown) [Compound 56, 6-(2-methyl-3H-imidazo[4,5-b]pyridin-6-yl)-4-(1-phenylethylamino) quinoline-3-carbonitrile] | 10 to 80 | 10 to 80 | 10 to 80 | – | – | – | –
COc1cc(-c2ccc3ncnc(NC(C)c4ccccc4)c3c2)cnc1OC (stereo not shown) [Compound 22, 6-(5,6-dimethoxy-3-pyridyl)-N-(1-phenylethyl) quinazolin-4-amine] | – | 10 to 80 | 10 to 80 | 20 to 100 (≈ 7.73 to 38.6 µg/mL) | – | 6.70 to 7.70 | < 6.70
